Measured values published in patent US4732978A, “Novel substituted naphthyloxymethyl quinoline derivatives as anti-inflammatory and antiallergy agents” (American Home Products Corporation, priority 1986, dated 1988).

How the values were obtained:
[1] = tested on: 5-HETE synthesis by rat glycogen-elicited polymorphonuclear leukocytes; assay: Inhibition of 5-HETE synthesis by rat glycogen-elicited polymorphonuclear leukocytes (lipoxygenase); type: cell-based, rat (female Wistar); details: Leukocyte, rat PMN, A23187 stimulated; for inhibition at 50 µM: read-out: >50% Inhibitory at 50 μm (5-HETE synthesis)
Method: The assay of this Example measures the ability of the compounds of the invention to inhibit the synthesis of 5-HETE by rat glycogen-elicited polymorphonuclear leukocytes.
(§1) Peritoneal PMN are obtained from female Wistar rats (150-250 g) that received an i.p. injection of 6% glycogen (10 mL). After 24 hours, rats are killed by CO2 asphyxiation and peritoneal cells are harvested by peritoneal lavage using Ca^++ and Mg^++ free Hanks' balanced salt solution (HBSS). The peritoneal exudate is centrifuged at 400 g for 10 minutes. After centrifugation, the lavaged fluid is removed and the cell pellet is resuspended in HBSS containing Ca^++ and Mg^++ and 10 mM L-cysteine at a concentration of 2×10^7 cells/mL. To 1 mL portions of cell suspension, test drugs or vehicle are added and incubated at 37° C. for 10 minutes. Following this preincubation, the calcium ionophore (10 μM), A23187, is added together with 0.5 μCi [^14 C] arachidonic acid and further incubated for 10 minutes. The reaction is stopped by the addition of ice cold water (3 mL) and acidifying to pH 3.5. Lipoxygenase products are then extracted twice into diethyl ether. The pooled ether extracts are evaporated to dryness under nitrogen and the residue is redissolved in a small volume of methanol and spotted on aluminum backed pre-coated thin layer chromatographic plates. The samples are then co-chromatographed with authentic reference 5-HETE, in the solvent system--hexane:ether:acetic acid (50:50:3). After chromatography, the areas associated with 5-HETE standard are identified by autoradiography, cut out and quantitated by liquid scintillation.
The compounds of this invention are tested in this assay at a level of 50 μm, unless otherwise noted. The results are summarized in Table 1, where those compounds having an inhibition of >50% are designated by a "+". Some results are express as an IC50 value.

[2] = tested on: TPA-induced mouse ear edema; assay: 12-O-tetradecanoylphorbol acetate (TPA)-induced murine ear edema test, topical; type: in vivo, mouse (Swiss Webster female); details: for % Change from Control, TOPICAL, TPA: TPA 10 μg/ear (footnote b), * = <0.05
Description: (§2) The ability of the compounds of the invention to inhibit the lipoxygenase and/or cyclooxygenase pathways of arachidonic acid is examined in the in vivo arachidonic acid (AA)-/12-O-tetradecanoylphorbol acetate (TPA)-induced murine ear edema test.
(§3) According to this test, Swiss Webster female mice (Buckshire), approximately 8 weeks old, are placed into plastic boxes in groups of six. Eight groups of mice receive AA topically on the right ear, and another 8 groups receive TPA topically on the right ear. AA and TPA are dissolved in acetone at concentrations of 100 mg/mL and 100 μg/mL respectively. The phlogistics are applied to the right ear by the means of an automatic pipet. Volumes of 10 μL are applied to the inner and outer surfaces of the ear. […] The left ear (control) receives acetone delivered in the same manner. Oral and topical dosing regimens are as follows: (1) drugs are given 30 minutes prior to AA treatment, and (2) drugs are given 30 minutes after treatment with TPA.
(§4) Measurements are taken with Oditest calipers, 0-10 mm with 0.01 graduations. The right and left ears are measured after 1 hour AA-induced inflammation and 4 hours after TPA-induced inflammation.
(§5) The difference between right and left ear thickness is calculated and the significance is determined by a one way analysis of variance with Dunnett's comparisons to control (P=0.05). Drug effects are expressed as a percent change from control values: [formula]
(§6) The ED50 values are also given for these compounds where this has been determined.

[3] = tested on: AA-induced mouse ear edema; assay: Arachidonic acid (AA)-induced murine ear edema test, topical; type: in vivo, mouse (Swiss Webster female); details: for % Change from Control, TOPICAL, AA: AA 1 mg/ear (footnote a), * = <0.05
Description: as §2, §3, §4, §5, §6

[4] = tested on: ovalbumin induced bronchospasm; assay: Inhibition of ovalbumin-induced bronchospasm mediated by endogenous mediators in sensitized guinea pigs; type: in vivo, guinea pig (male Hartley); details: 50 mg/kg intraduodenal, 10 minutes before intravenous ovalbumin challenge
Method: The assay of this Example measures the in vivo ability of the compounds of the invention to inhibit the bronchospasm induced in guinea pigs by endogenous mediators of the bronchoconstriction.
Male Hartley strain guinea pigs weighing 250-350 g are sensitized to chicken ovalbumin (OA) (10 mg i.p.) on days 1 and 3 and used starting on day 26. The animals are anesthetized with pentobarbital sodium (50 mg/kg, i.p.), bilateral vagotomy is performed, and the jugular vein is cannulated for injection of drugs and the carotid artery for monitoring blood pressure. The trachea is cannulated for artificial ventilation by a miniature Starling pump and for indirect measurement of respiratory volume changes as described, infra. Succinylcholine (2 mg/kg, i.v.) is administered to arrest spontaneous respiration. […]
Respiratory volume changes are determined by a calibrated piston whose travel is recorded, via a linear transducer, on a Beckman Dynograph recorder. Maximal bronchoconstrictor volume is determined by clamping off the trachea at the end of the experiment. Overflow volumes at minutes 1, 3 and 5 are obtained from the recorded charts.
Area under the volume overflow curve (AUC) is estimated, using the overflow values at 1, 3 and 5 minutes, and expressed as a percentage of the maximal overflow AUC (equation 1): [formula] […]

[5] = tested on: synthesis of cyclooxygenase oxidation product TxB2; assay: Inhibition of synthesis of cyclooxygenase product TxB2 (rat polymorphonuclear leukocytes, procedure of Example 17); type: cell-based, rat (female Wistar); details: Leukocyte, rat PMN; for IC50: TxA2
Method: as §1
(§7) The procedure of Example 17 is also employed for the determination of the ability of the compounds of the invention to inhibit the synthesis of the arachidonic acid cyclooxygenase oxidation products TxB2 and PGE2.
In this assay, the procedure of Example 17 is carried out as described. However, in order to determine cyclooxygenase activity, the samples are cochromatographed with authentic reference TxB2 and PGE2 in the solvent system ethyl acetate:formic acid (80:1) and the upper phase of ethyl acetate:isoctane:acetic acid:water (110:50:20:100). After chromatography, the areas associated with TxB2 and PGE2 standards are identified by autoradiography, cut out and quantitated by liquid scintillation techniques.
(§8) The results are calculated as in Example 17.

[6] = tested on: synthesis of cyclooxygenase oxidation product PGE2; assay: Inhibition of synthesis of cyclooxygenase product PGE2 (rat polymorphonuclear leukocytes, procedure of Example 17); type: cell-based, rat (female Wistar); details: Leukocyte; rat PMN
Method: as §1, §7
In this assay, the procedure of Example 17 is carried out as described. […] After chromatography, the areas associated with TxB2 and PGE2 standards are identified by autoradiography, cut out and quantitated by liquid scintillation techniques.
as §8

| IC50 [1] | IC50 [6] | IC50 [5] | Structure (SMILES) | inhibition at 50 µM [1] | TOPICAL ED50, TPA [2] | % Change from Control, TOPICAL, TPA [2] | TOPICAL ED50, AA [3] | % Change from Control, TOPICAL, AA [3] | % Inhibition of MAX AUC [4] | inhibition at 50 µM [5] |
| --- | --- | --- | --- | --- | --- | --- | --- | --- | --- | --- |
|  |  |  | Brc1cccc(OCc2ccc3ccccc3n2)c1 [Example 1, 2-[(3-Bromophenoxy)methyl]quinoline] | > 50% | 0.7 mg/ear | -62% | 2.0 mg/ear | -43% | > 50% | > 50% |
|  |  |  | Fc1ccccc1OCc1ccc2ccccc2n1 [Example 2, 2-[(2-Fluorophenoxy)methyl]quinoline] | > 50% |  | -42% |  | -40% |  | > 50% |
| 1.5 µM | > 100 µM | 7.2 µM | Clc1cccc(OCc2ccc3ccccc3n2)c1 [Example 3, 2-[(3-Chlorophenoxy)methyl]quinoline] | > 50% |  | -60% | 0.3 mg/ear | -67% |  | > 50% |
|  |  |  | Clc1ccc(OCc2ccc3ccccc3n2)cc1 [Example 4, 2-[(4-Chlorophenoxy)methyl]quinoline] | > 50% |  | -45% | 1.3 mg/ear | -43% |  | > 50% |
| 9.9 µM | > 100 µM | 3.2 µM | Fc1cccc(OCc2ccc3ccccc3n2)c1 [Example 5, 2-[(3-Fluorophenoxy)methyl]quinoline] | > 50% | 1.6 mg/ear | -47% | 0.3 mg/ear | -63% |  | > 50% |
|  |  |  | Brc1ccc(OCc2ccc3ccccc3n2)cc1 [Example 6, 2-[(4-Bromophenoxy)methyl]quinoline] | > 50% |  | -22% |  | -36% |  | > 50% |
|  |  |  | Clc1ccc(OCc2ccc3ccccc3n2)cc1Cl [Example 7, 2-[(3,4-Dichlorophenoxy)methyl]quinoline] | > 50% |  | -21% |  | -54% |  | > 50% |
|  |  |  | Brc1ccccc1OCc1ccc2ccccc2n1 [Example 8, 2-[(2-Bromophenoxy)methyl]quinoline] | > 50% |  | -14% |  | -32% |  | > 50% |
|  |  |  | c1ccc2cc(OCc3ccc4ccccc4n3)ccc2c1 [Example 9, 2-[(2-Naphthalenyloxy)methyl]quinoline] | > 50% |  |  |  |  |  | > 50% |
| 0.4 µM | > 100 µM | 6.3 µM | c1ccc2nc(COc3cccc4ccccc34)ccc2c1 [Example 10, 2-[(1-Naphthalenyloxy)methyl]quinoline] | > 50% | 0.7 mg/ear |  | 0.3 mg/ear |  |  | > 50% |
|  |  |  | Brc1c(OCc2ccc3ccccc3n2)ccc2ccccc12 [Example 11, 2-[(1-Bromo-2-naphthalenyloxy)methyl]quinoline] | > 50% |  |  |  |  |  | > 50% |
|  |  |  | Brc1ccc(SCc2nc3ccccc3s2)cc1 [Example 13] | > 50% |  |  |  |  |  | > 50% |
|  |  |  | Brc1cccc(SCc2nc3ccccc3s2)c1 [Example 14] | > 50% |  |  |  |  |  | > 50% |
|  |  |  | c1ccc2nc(COc3cccc4cccnc34)ccc2c1 [Example 15, 2-[(8-quinolinyloxy)-methyl]quinoline] | > 50% |  | 53% |  | 52% |  |  |
|  |  |  | FC(F)(F)c1cccc(OCc2ccc3ccccc3n2)c1 [Example 16, 2-[[3-(trifluoromethyl)phenoxy]methyl]quinoline] | > 50% |  | 22% |  | 35% |  |  |
